The text below walks through data of US9125913B2, “Bcl-2-selective apoptosis-inducing agents for the treatment of cancer and immune diseases” (AbbVie Inc., priority 2008, dated 2015).

In data set [1] the test system is circulating platelets. The note with it: following injection into C57BL/6 mice; cited from earlier work.
The subject of data set [2] is circulating platelets. The conditions noted are these: following injection in beagle canines; cited from earlier work.
Another data set concerns the target GST-Bcl-XL (Homo sapiens (Human), UniProt Q07817). Briefly: TR-FRET binding assay, Bcl-XL. The conditions noted are these: GST-Bcl-XL 1 nM, F-Bak probe 100 nM, Tb-anti-GST 1 nM. Here is the method:
Tb-anti-GST antibody was purchased from Invitrogen (Catalog No. PV4216).
Representative compounds were serially diluted in dimethyl sulfoxide (DMSO) starting at 50 μM (2× starting concentration; 10% DMSO) and 10 μL were transferred into a 384-well plate.
The samples were then mixed on a shaker for 1 minute and incubated for an additional 3 hours at room temperature. For each assay, the probe/antibody and protein/probe/antibody were included on each assay plate as negative and positive controls, respectively. Fluorescence was measured on the Envision (Perkin Elmer) using a 340/35 nm excitation filter and 520/525 (F-Bak peptide) and 495/510 nm (Tb-labeled anti-Histidine antibody) emission filters.
The inhibition constant (Ki) is the dissociation constant of an enzyme-inhibitor complex or a protein/small molecule complex, wherein the small molecule is inhibiting binding of one protein to another protein or peptide. […] Inhibition constants were determined using Wang's equation (Wang Z-X., An Exact Mathematical Expression For Describing Competitive Binding Of Two Different Ligands To A Protein Molecule. FEBS Lett. 1995, 360:111-4).

In data set [3] the test system is GST-Bcl-2. Briefly: TR-FRET binding assay, Bcl-2. The conditions noted are these: TR-FRET Ki values. The gist of the method: (§1)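 Compounds serially diluted in DMSO from 50 μM (2× starting concentration, 10% DMSO), mixed with GST-tagged protein, F-Bak peptide probe and Tb-labeled antibody, incubated 3 h at room temperature.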
For data set [4], the target named is GST-Bcl-2 (Homo sapiens (Human), UniProt P10415). Briefly: TR-FRET binding assay, Bcl-2. The note with it: TR-FRET; GST-Bcl-2 1 nM, F-Bak probe 100 nM, Tb-anti-GST 1 nM. The gist of the method:
as §1

A further data set relates to FL5.12/Bcl-2 cells. Briefly: FL5.12/Bcl-2 cell viability assay. The conditions noted are these: for Selectivity Ratio (Platelet EC50/FL5.12/Bcl-2 EC50): ratio of canine platelet EC50 to FL5.12/Bcl-2 EC50. It is filed as cell-based, murine. In a few lines: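 Viability measured with CellTiter-Glo after 24 h compound treatment at various concentrations, following 48 h IL-3 withdrawal (no WEHI-3B medium). Cells: prolymphocytic mouse FL5.12 line stably transfected to overexpress Bcl-2, cultured at 37 °C, 5% CO2.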

In data set [5] the test system is isolated canine platelets. The experiment in a line: Platelet cell viability assay. It is filed as cell-based. The note with it: Canis lupus familiaris, 5 h; isolated canine platelets (platelet-rich plasma), five hours at 37° C., Cell Titer Glo. As to the method:
After the incubation, platelets were equilibrated to room temperature for 20 minutes and then an equal volume of Cell Titer Glo reagent (Promega Corporation) was added. Samples were mixed for two minutes and then allowed to equilibrate for an additional 10 minutes at room temperature. The luminescence generated from the samples was quantitated using an LJL Analyst plate reader.
The effect of compounds on platelet survival can be directly evaluated ex vivo by examining the viability of isolated canine platelets in the presence of various concentrations of compound.

Molecules are shown by their SMILES. Read-outs that look alike come from different tables or passages of the source.

Chain of GST-Bcl-2 (Homo sapiens (Human), UniProt P10415) (P10415 whole entry, looked up): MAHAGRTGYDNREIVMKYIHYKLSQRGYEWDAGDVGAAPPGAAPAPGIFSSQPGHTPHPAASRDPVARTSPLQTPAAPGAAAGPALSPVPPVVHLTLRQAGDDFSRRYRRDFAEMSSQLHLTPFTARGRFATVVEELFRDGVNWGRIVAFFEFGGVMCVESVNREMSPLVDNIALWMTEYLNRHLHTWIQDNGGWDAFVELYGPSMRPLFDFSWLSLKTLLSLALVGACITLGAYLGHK
Chain of GST-Bcl-XL (Q07817 whole entry): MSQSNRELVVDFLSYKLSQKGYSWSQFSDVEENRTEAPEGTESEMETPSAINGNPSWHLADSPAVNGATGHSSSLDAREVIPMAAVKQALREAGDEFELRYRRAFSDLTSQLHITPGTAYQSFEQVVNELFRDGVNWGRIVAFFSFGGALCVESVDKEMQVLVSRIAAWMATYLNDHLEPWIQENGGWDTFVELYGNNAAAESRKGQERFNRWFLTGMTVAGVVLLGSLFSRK

With `CN(C)CC[C@H](CSc1ccccc1)Nc1ccc(S(=O)(=O)NC(=O)c2ccc(N3CCN(Cc4ccccc4-c4ccc(Cl)cc4)CC3)cc2)cc1[N+](=O)[O-]` [ABT-737, 4-(4-((4′-chloro-1,1′-biphenyl-2-yl)methyl)piperazin-1-yl)-N-((4-(((1R)-3-(dimethylamino)-1-((phenylthio)methyl)propyl)amino)-3-nitrophenyl)sulfonyl)benzamide], the “decrease in circulating platelets” value in the data set with circulating platelets [1] is reported as “rapid, concentration dependant decrease in circulating platelets”; with circulating platelets [2] it was “rapid, concentration dependant decrease in circulating platelets”.
On to `CN1CCC(Nc2ccc(S(=O)(=O)NC(=O)c3ccc(N4CCN(CC5=C(c6ccc(Cl)cc6)CC(C)(C)CC5)CC4)cc3Oc3ccc4[nH]ccc4c3)cc2S(=O)(=O)C(F)(F)F)CC1` [Example 76, 4-(4-{[2-(4-chlorophenyl)-4,4-dimethylcyclohex-1-en-1-yl]methyl}piperazin-1-yl)-2-(1H-indol-5-yloxy)-N-({4-[(1-methylpiperidin-4-yl)amino]-3-[(trifluoromethyl)sulfonyl]phenyl}sulfonyl)benzamide], for which the results for the Ki on GST-Bcl-XL and on GST-Bcl-2 [4] were 10 µM and 0.05 nM, respectively. The “Binding selectivity ratio (Bcl-XL Ki/Bcl-2 Ki)” value (“Binding selectivity ratio” for short) with GST-Bcl-2 [3] came to 64.5. Moreover, in the data set on FL5.12/Bcl-2 cells, the “Selectivity Ratio (Platelet EC50/FL5.12/Bcl-2 EC50)” value was determined as 221.
As for `CN1CCC(Nc2ccc(S(=O)(=O)NC(=O)c3ccc(N4CCN(CC5=C(c6ccc(Cl)cc6)CCC5)CC4)cc3Oc3cccc4[nH]ccc34)cc2[N+](=O)[O-])CC1` [Example 148, 4-(4-{[2-(4-chlorophenyl)cyclopent-1-en-1-yl]methyl}piperazin-1-yl)-2-(1H-indol-4-yloxy)-N-({4-[(1-methylpiperidin-4-yl)amino]-3-nitrophenyl}sulfonyl)benzamide], the EC50 in data set [5] amounted to 120 µM; in the data set with FL5.12/Bcl-2 cells (Mus musculus, FL5.12/Bcl-2 cells, IL-3 withdrawal, 24 hrs treatment, CellTitre Glo), 0.07 µM. In the data set with GST-Bcl-2 [3], the “Binding selectivity ratio” value is more than 228.4. Also, the “Selectivity Ratio (Platelet EC50/FL5.12/Bcl-2 EC50)” value in the data set on FL5.12/Bcl-2 cells is on record as 278.
Consider `O=C(NS(=O)(=O)c1ccc(NCCCN2CCOCC2)c([N+](=O)[O-])c1)c1ccc(N2CCN(Cc3ccccc3-c3ccc(Cl)cc3)CC2)cc1Oc1ccccc1` [Example 155, 4-{4-[(4′-chloro-1,1′-biphenyl-2-yl)methyl]piperazin-1-yl}-N-({4-[(3-morpholin-4-ylpropyl)amino]-3-nitrophenyl}sulfonyl)-2-phenoxybenzamide], for which, in the data set on GST-Bcl-2 [3], the “Binding selectivity ratio” value was 77.8. Further, in the data set with FL5.12/Bcl-2 cells, the “Selectivity Ratio (Platelet EC50/FL5.12/Bcl-2 EC50)” value is reported as more than 119.
The matching figures for `CN(C)CCCNc1ccc(S(=O)(=O)NC(=O)c2ccc(N3CCN(Cc4ccccc4-c4ccc(Cl)cc4)CC3)cc2Oc2ccc3ccccc3c2)cc1[N+](=O)[O-]` [Example 166, 4-{4-[(4′-chloro-1,1′-biphenyl-2-yl)methyl]piperazin-1-yl}-N-[(4-{[3-(dimethylamino)propyl]amino}-3-nitrophenyl)sulfonyl]-2-(2-naphthyloxy)benzamide]: 7.1 and more than 327.
`CN(C)CCCNc1ccc(S(=O)(=O)NC(=O)c2ccc(N3CCN(CC4=C(c5ccc(Cl)cc5)CC(C)(C)CC4)CC3)cc2Oc2ccc3[nH]ccc3c2)cc1S(=O)(=O)C(F)(F)F` [Example 170, 4-(4-{[2-(4-chlorophenyl)-4,4-dimethylcyclohex-1-en-1-yl]methyl}piperazin-1-yl)-N-({4-{[3-(dimethylamino)propyl]amino}-3-[(trifluoromethyl)sulfonyl]phenyl}sulfonyl)-2-(1H-indol-5-yloxy)benzamide]: the “Binding selectivity ratio” value in the data set with GST-Bcl-2 [3] is given as 30.2. In the data set on FL5.12/Bcl-2 cells, the “Selectivity Ratio (Platelet EC50/FL5.12/Bcl-2 EC50)” value was 507.
In the same order, the values of `CN(C)CCCNc1ccc(S(=O)(=O)NC(=O)c2ccc(N3CCN(CC4=C(c5ccc(Cl)cc5)CC(C)(C)CC4)CC3)cc2Oc2ccc3[nH]ccc3c2)cc1C(F)(F)F` [Example 171, 4-(4-{[2-(4-chlorophenyl)-4,4-dimethylcyclohex-1-en-1-yl]methyl}piperazin-1-yl)-N-{[4-{[3-(dimethylamino)propyl]amino}-3-(trifluoromethyl)phenyl]sulfonyl}-2-(1H-indol-5-yloxy)benzamide] are 17.7 and more than 181.
In the same order, the values of `CN(C)CCCNc1ccc(S(=O)(=O)NC(=O)c2ccc(N3CCN(CC4=C(c5ccc(Cl)cc5)CC(C)(C)CC4)CC3)cc2Oc2ccc3[nH]ccc3c2)cc1C#N` [Example 172, 4-(4-{[2-(4-chlorophenyl)-4,4-dimethylcyclohex-1-en-1-yl]methyl}piperazin-1-yl)-N-[(3-cyano-4-{[3-(dimethylamino)propyl]amino}phenyl)sulfonyl]-2-(1H-indol-5-yloxy)benzamide] are 32.1 and more than 257.
In the same order, the values of `CC1(C)CCC(CN2CCN(c3ccc(C(=O)NS(=O)(=O)c4ccc(NC5CCN(C6CCOCC6)CC5)c([N+](=O)[O-])c4)c(Oc4ccc5[nH]ccc5c4)c3)CC2)=C(c2ccc(Cl)cc2)C1` [Example 173, 4-(4-{[2-(4-chlorophenyl)-4,4-dimethylcyclohex-1-en-1-yl]methyl}piperazin-1-yl)-2-(1H-indol-5-yloxy)-N-({3-nitro-4-[(1-tetrahydro-2H-pyran-4-ylpiperidin-4-yl)amino]phenyl}sulfonyl)benzamide] are 204.6 and more than 4587.
Consider `CN1CCN(Nc2ccc(S(=O)(=O)NC(=O)c3ccc(N4CCN(CC5=C(c6ccc(Cl)cc6)CC(C)(C)CC5)CC4)cc3Oc3ccc4[nH]ccc4c3)cc2[N+](=O)[O-])CC1` [Example 174, 4-(4-{[2-(4-chlorophenyl)-4,4-dimethylcyclohex-1-en-1-yl]methyl}piperazin-1-yl)-2-(1H-indol-5-yloxy)-N-({4-[(4-methylpiperazin-1-yl)amino]-3-nitrophenyl}sulfonyl)benzamide], for which the “Binding selectivity ratio” value with GST-Bcl-2 [3] turned out to be 591.3. In the data set on FL5.12/Bcl-2 cells, the “Selectivity Ratio (Platelet EC50/FL5.12/Bcl-2 EC50)” value is 1857.
